Test results reported in patent US20240245677A1, “SELECTED COMPOUNDS FOR TARGETED DEGRADATION OF BRD9” (C4 THERAPEUTICS, INC., priority 2021, published 2024).
In brackets after ≈: the same amount, converted by molar mass. Read-outs that look alike come from different tables or passages of the source.

Experiments:
[1] = Mouse Hepatocyte Stability Assay; format: in vitro ADME; conditions: CD-1, cryopreserved hepatocytes
Method: The metabolic stability of Compound 1 was evaluated using cryopreserved hepatocytes from mice, rats, dogs, cynomolgus monkeys, and humans.
50 μL of 1 mM intermediate solutions for each test compound was prepared by adding 5 μL of 10 mM stock solution to 45 μL of a 1:1 mixture of water and acetonitrile. A 2 μM working stocks for each test compound were prepared in incubation media, InvitroGRO™ KHB (Bio IVT, Westbury, NY, USA), by adding 2 μL of 1 mM intermediate stock to 998 μL of incubation media.
To thaw the hepatocytes, InvitroGRO™ HT thawing medium (BioIVT, Westbury, NY, USA) was prewarmed to 37° C., and 48 mL of warmed thawing medium was transferred to a sterile 50 mL conical tube. The hepatocyte vial was removed from the liquid nitrogen Dewar, and gently thawed in a water bath at 37° C. for 1-2 minutes, then the contents of the vial were emptied into a conical tube with prewarmed InvitroGRO HT medium. 1 mL of prewarmed InvitroGRO HT medium was added to each emptied hepatocyte vial to resuspend any remaining cells, and the contents were pipetted into the hepatocyte suspension. The tube containing the hepatocyte suspension was centrifuged at 50*g for 5 minutes. The supernatant was removed carefully, and the remaining pellet was resuspended by adding 1 mL of incubation media, InvitroGRO KHB, and gently shaking until there were no clumps.
Cell viability was determined using the trypan blue method. 25 μL of hepatocyte cell suspension was added to a trypan blue (TB) solution (containing 775 μL InvitroGRO KHB and 200 μL of Trypan Blue). Cell count was taken using a hemacytometer.
For mouse hepatocytes, 200 μL of hepatocytes (0.8×10^6 cells/mL) were added to the wells of a 48 well plate (Catalog No. 92048, TPP Techno Plastic Products AG, Trasadingen, Switzerland) and pre-incubated for 30 minutes at 37° C. For rat, dog, monkey, […], 200 μL of hepatocytes (2×10^6 cells/mL) were added to the wells of a 48 well plate (Catalog No. 92048, TPP Techno Plastic Products AG, Trasadingen, Switzerland) and pre-incubated for 30 minutes at 37° C.
For all species of hepatocytes, once the pre-incubation period was complete, 200 μL of 2 μM working stock of test compound was added to the wells of the plate, and the plate was vortexed on a Vibramax™ 100 (P/N 544-21200-00, Heidolph Instruments GmbH & Co. KG, Schwabach, Germany) at 500 rpm in a 37° C. CO2 incubator (Model No. 51026280, ThermoFisher Scientific, Waltham, MA, USA). At each time point of 0, 15, 30, 60, 90, and 120 minutes, 50 μL of incubation mixture was precipitated with 200 μL of acetonitrile containing internal standard.
At the end of the experiment, the samples were centrifuged at 4000 rpm for 10 minutes. The supernatant was collected and diluted with an equal amount of water, and vortexed for 5 minutes at 900 rpm in MixMate® (Model No. 5353, Eppendorf SE, Hamburg, Germany).
The supernatant samples were submitted for LC-MS/MS analysis.
Calculations of the results included the following: […]

[2] = Variable temperature XRPD (VT-XRPD) experiments; format: physicochemical
Method: To investigate form conversion behavior, variable temperature XRPD experiments were conducted for hydrate Pattern A, hydrate Pattern C, hydrate Pattern F and hetero-solvate Pattern L.
Based on DSC and TGA results, variable temperature XRPD was conducted for Pattern A, at different temperatures, including 25° C., 110° C. and 25° C.
Based on DSC and TGA results, variable temperature XRPD was conducted for Pattern B, at different temperatures, including 25° C., 80° C., 130° C. and 25° C. The sample after heating-cooling was placed at 25° C./75% RH condition for 1 day and investigated by XRPD.
Based on DSC and TGA results, variable temperature XRPD was conducted for Pattern C, at different temperatures, including 25° C., 110° C. and 25° C.
Based on DSC and TGA results, variable temperature XRPD was conducted for Pattern F at different temperatures, including 25° C., 110° C. and 25° C. The sample after heating-cooling was placed at 25° C./75% RH condition for 1 day and investigated by XRPD.
Based on DSC and TGA results, variable temperature XRPD was conducted for Pattern L, at different temperatures, including 25° C., 100° C., 140° C., 180° C. and 25° C. The sample after heating-cooling was placed at 25° C./92% RH condition for 24 h and investigated by XRPD.

[3] = Hygroscopicity by DVS at 25° C.; format: physicochemical; conditions: for water uptake: DVS 25° C.
Method: Hygroscopicity of Form A and Form N was investigated by DVS at 25° C. […] Form A converted to Form K after the DVS test. Form K is a metastable hydrate. It reverted back to Form A after exposure to ambient condition.
Hygroscopicity of the free base Pattern A* and the urea cocrystal Form P were evaluated by DVS at 25° C.

[4] = Variable humidity XRPD (VH-XRPD) experiments; format: physicochemical
Method: Based on DVS results, variable humidity XRPD was conducted for Pattern A at different humidity conditions, including 40%, 70%, 90%, 70%, 40%, 20%, 0%, 40% RH conditions.
Based on DVS results, variable humidity XRPD was conducted for Pattern N, at different humidity conditions, including 40%, 70%, 90%, 70%, 40%, 20%, 0%, 40% RH conditions.

Photostability study = conditions: 1.2 million lux-hrs at 25° C., open container
[5] = Bulk stability study (1 week stress conditions; drying); conditions: one week
[6] = Solubility study in aqueous media at 37° C.
physchem = conditions: 37 °C, thermodynamic from solid
[7] = pH 6.5
[8] = pH 4.5, 50 mM acetate buffer, 24 h

## CC(C)NCC(O)COc1cccc2ccccc12 (stereo not shown) [Propranolol, reference compound]
[1]
  half-life at 1 µM: 16.3 min

## COc1cc(-c2cn(C)c(=O)c(C)c2C)cc(OC)c1CN1CC[C@H](N2CCN(c3ccc(N[C@H]4CCC(=O)NC4=O)cc3F)CC2)C(F)(F)C1 [Pattern A*]
[2]; 25° C. (start)
  XRPD: Pattern A
[2]; 25° C./50% RH hold 2 h
  XRPD: Pattern A
[2]; Cool to 25° C.
  XRPD: Metastable Pattern J
[2]; Heat to 110° C.
  XRPD: Metastable Pattern J
[3]; DVS
  water uptake from 40% RH to 95% RH: 6.0% water uptake from
[3]; 95% RH
  water uptake: about 6.0%
[3]; DVS, 0% RH
  1st desorp. (%): 0.0%
  2nd sorp. (%): 0.0%
[3]; DVS, 10% RH
  1st desorp. (%): 1.1%
  2nd sorp. (%): 1.0%
[3]; DVS, 20% RH
  1st desorp. (%): 1.8%
  2nd sorp. (%): 1.5%
[3]; DVS, 30% RH
  1st desorp. (%): 4.5%
  2nd sorp. (%): 2.1%
[3]; DVS, 40% RH
  1st desorp. (%): 6.3%
  1st sorp. (%): 4.6%
  2nd desorp. (%): 6.6%
  2nd sorp. (%): 3.6%
[3]; DVS, 50% RH
  1st desorp. (%): 8.5%
  1st sorp. (%): 5.2%
  2nd desorp. (%): 8.5%
  2nd sorp. (%): 5.8%
[3]; DVS, 60% RH
  1st desorp. (%): 9.4%
  1st sorp. (%): 6.9%
  2nd desorp. (%): 9.4%
  2nd sorp. (%): 7.7%
[3]; DVS, 70% RH
  1st desorp. (%): 9.7%
  1st sorp. (%): 9.1%
  2nd desorp. (%): 9.7%
  2nd sorp. (%): 9.3%
[3]; DVS, 80% RH
  1st desorp. (%): 1.0%
  1st sorp. (%): 9.8%
  2nd desorp. (%): 10.0%
  2nd sorp. (%): 9.8%
[3]; DVS, 90% RH
  1st desorp. (%): 10.3%
  1st sorp. (%): 10.3%
  2nd desorp. (%): 10.3%
  2nd sorp. (%): 10.2%
[3]; DVS, 95% RH
  1st desorp. (%): 10.6%
  1st sorp. (%): 10.6%
  2nd desorp. (%): 10.5%
  2nd sorp. (%): 10.5%
[4]; 0% RH
  XRPD: Pattern J
[4]; 0% RH hold 6 h
  XRPD: Pattern J
[4]; 0% RH hold 2 days
  XRPD: Pattern J
[4]; 20% RH
  XRPD: Pattern A
[4]; 40% RH (after 90% RH, falling)
  XRPD: Pattern A
[4]; 40% RH (first step)
  XRPD: Pattern A
[4]; 40% RH (last step, after 0% RH)
  XRPD: Pattern A
[4]; 70% RH (after 90% RH)
  XRPD: Metastable Pattern K
[4]; 70% RH (humidity rising)
  XRPD: Metastable Pattern K
[4]; 90% RH
  XRPD: Metastable Pattern K
Photostability study
  degradation after exposure to light: ~1%
[5]; 25° C./92% RH open, 40° C./75% RH open, 60° C. tight container
  chemical stability: good chemical stability
[5]; 25° C./92% RH, open container
  physical stability: agglomeration
[5]; 40° C./75% RH, open container
  physical stability: physically stable
[5]; 60° C., tight container
  physical stability: crystallinity decrease
[6]; FaSSIF-v1 (pH 6.5)
  Solubility: low solubility (close to LOQ)
[6]; FaSSIF-v1, pH 6.5, 2 h
  pH: pH: 6.5
[6]; FaSSIF-v1, pH 6.5, 2 h, target 10 mg/5 mL, LOQ: 50 μg/mL
  Solubility: <LOQ
[6]; FaSSIF-v1, pH 6.5, 24 h
  XRPD of residual solids: No form change
  pH: pH: 6.5
[6]; FaSSIF-v1, pH 6.5, 24 h, target 10 mg/5 mL, LOQ: 50 μg/mL
  Solubility: 80 µg/mL (≈ 113 µM)
[6]; FeSSIF-v1, pH 5.0, 2 h
  pH: pH: 5.0
[6]; FeSSIF-v1, pH 5.0, 2 h, target 10 mg/5 mL, LOQ: 50 μg/mL
  Solubility: 170 µg/mL (≈ 239 µM)
[6]; FeSSIF-v1, pH 5.0, 24 h
  pH: pH: 5.0
[6]; FeSSIF-v1, pH 5.0, 24 h, target 10 mg/5 mL, LOQ: 50 μg/mL
  Solubility: 210 µg/mL (≈ 295 µM)
[6]; SGF, pH 1.8, 2 h
  pH: pH: 2.4
[6]; SGF, pH 1.8, 2 h, target 10 mg/5 mL, LOQ: 50 μg/mL
  Solubility: >2000 µg/mL
[6]; SGF, pH 1.8, 24 h
  pH: pH: 2.4
[6]; SGF, pH 1.8, 24 h, target 10 mg/5 mL, LOQ: 50 μg/mL
  Solubility: >2000 µg/mL
[6]; pH 1.0 (0.1N HCl), 2 h
  pH: pH: 1.0
[6]; pH 1.0 (0.1N HCl), 2 h, target 10 mg/5 mL, LOQ: 50 μg/mL
  Solubility: >2000 µg/mL
[6]; pH 1.0 (0.1N HCl), 24 h
  pH: pH: 1.0
[6]; pH 1.0 (0.1N HCl), 24 h, target 10 mg/5 mL, LOQ: 50 μg/mL
  Solubility: >2000 µg/mL
[6]; pH 4.5, 50 mM acetate buffer, 2 h
  pH: pH: 4.5
[6]; pH 4.5, 50 mM acetate buffer, 2 h, target 10 mg/5 mL, LOQ: 50 μg/mL
  Solubility: 260 µg/mL (≈ 366 µM)
[6]; [8]
  XRPD of residual solids: No form change
  pH: pH: 4.5
[6]; pH 4.5, 50 mM acetate buffer, 24 h, target 10 mg/5 mL, LOQ: 50 μg/mL
  Solubility: 120 µg/mL (≈ 169 µM)

## COc1cc(-c2cn(C)c(=O)c(C)c2C)cc(OC)c1CN1CC[C@H](N2CCN(c3ccc(N[C@H]4CCC(=O)NC4=O)cc3F)CC2)C(F)(F)C1 [Form P]
physchem; pH 1, simulated gastric fluid
  Solubility: > 2000 µg/mL
physchem; pH 1.8, simulated gastric fluid
  Solubility: > 2000 µg/mL
physchem; pH 4.5, aqueous buffer
  Solubility: 100 to 300 µg/mL (≈ 141 to 422 µM)
physchem; pH 5, fessif
  Solubility: 100 to 300 µg/mL (≈ 141 to 422 µM)
[3]; 95% RH
  water uptake: 3.1%
[3]; below 90% RH
  water uptake: 1.6%
[7]
  Solubility: low solubility (close to LOQ)
